Test results reported in US10722501B2 (BAYER AKTIENGESELLSCHAFT, priority 2016, dated 2020).
pIC50: −log10 of the molar value.

These compounds were tested against T1, recombinant full-length human prolyl endopeptidase (PREP) (Homo sapiens, UniProt P48147) (assay: Biochemical human prolyl endopeptidase (PREP) assay with fluorescently labelled substrate). Conditions: substrate Z-Gly-Pro-AMC 50 μM, 32° C., 60 min; some as mean values from multiple independent determinations.
T1 construct: To recombinant full-length human prolyl endopeptidase (PREP, R&D-Systems, 4308-SE); purchased R&D-Systems 4308-SE
T1 sequence (P48147 1-710): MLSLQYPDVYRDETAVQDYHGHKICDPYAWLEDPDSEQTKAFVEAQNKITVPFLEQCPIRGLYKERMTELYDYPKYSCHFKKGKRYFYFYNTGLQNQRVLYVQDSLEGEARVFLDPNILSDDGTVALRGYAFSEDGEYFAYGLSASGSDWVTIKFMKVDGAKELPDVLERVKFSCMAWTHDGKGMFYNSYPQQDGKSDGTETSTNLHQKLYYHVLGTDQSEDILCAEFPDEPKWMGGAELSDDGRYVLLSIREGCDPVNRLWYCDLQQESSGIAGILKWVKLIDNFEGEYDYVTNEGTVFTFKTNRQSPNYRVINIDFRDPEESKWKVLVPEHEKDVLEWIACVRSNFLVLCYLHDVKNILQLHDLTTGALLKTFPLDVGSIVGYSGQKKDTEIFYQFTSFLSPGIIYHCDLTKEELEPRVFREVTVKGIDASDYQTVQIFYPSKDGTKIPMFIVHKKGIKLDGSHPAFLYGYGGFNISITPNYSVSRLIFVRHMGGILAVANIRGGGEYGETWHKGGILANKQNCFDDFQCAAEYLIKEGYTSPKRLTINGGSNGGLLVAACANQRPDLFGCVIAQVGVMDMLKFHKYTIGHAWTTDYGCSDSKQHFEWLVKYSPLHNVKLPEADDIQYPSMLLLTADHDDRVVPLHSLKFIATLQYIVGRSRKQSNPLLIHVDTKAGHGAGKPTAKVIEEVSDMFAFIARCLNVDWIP
In short: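 Initial rates of fluorescence increase from 50 μM Z-Gly-Pro-AMC cleavage (ex 360/em 465 nm, 60 min, 32° C) give percent PREP activity versus no-compound control, and IC50 is interpolated. Enzyme used at 0.4 nM (final, example) in Tris pH 7.5 with EDTA, GSH, BSA and Brij-35; compounds span 1 nM to 30 μM.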

Compound	pIC50
O=C([C@@H]1CCCc2nn(Cc3cc(F)c(F)cc3F)c(=O)n21)N1CCC(F)(F)C1 [Example 490, (5S)-5-[(3,3-Difluoropyrrolidin-1-yl)carbonyl]-2-(2,4,5-trifluorobenzyl)-5,6,7,8-tetrahydro[1,2,4]triazolo[4,3-a]pyridin-3(2H)-one]	9.42
Cc1ccc(Cn2nc3n(c2=O)[C@H](C(=O)N2CCC(C)(F)C2)CCC3)cc1 (mixture of isomers) [Example 151, (5S)-5-{[(3RS)-3-Fluoro-3-methylpyrrolidin-1-yl]carbonyl}-2-(4-methylbenzyl)-5,6,7,8-tetrahydro[1,2,4]triazolo[4,3-a]pyridin-3(2H)-one]	9.59
O=C(C1CC(C(F)(F)F)Cc2nn(Cc3ccnc(C(F)(F)F)c3F)c(=O)n21)N1C[C@@H](F)[C@@H](F)C1 (single isomer, unassigned) [Example 262]	6.10
Cc1ccc(Cn2nc3n(c2=O)[C@H](C(=O)N2CC(C)(F)C2)CCC3)cc1 [Example 195, (5S)-5-[(3-Fluoro-3-methylazetidin-1-yl)carbonyl]-2-(4-methylbenzyl)-5,6,7,8-tetrahydro[1,2,4]triazolo[4,3-a]pyridin-3(2H)-one]	9.16
Cc1ccc(Cn2nc3n(c2=O)[C@H](C(=O)N2C[C@@H](F)[C@@H](F)C2)CCC3)cc1 [Example 150, (5S)-5-{[cis-3,4-Difluoropyrrolidin-1-yl]carbonyl}-2-(4-methylbenzyl)-5,6,7,8-tetrahydro[1,2,4]triazolo[4,3-a]pyridin-3(2H)-one]	9.24
Cc1ccc(Cn2nc3n(c2=O)[C@H](C(=O)N2CC[S+]([O-])C2)CCC3)cc1 (single isomer, unassigned) [Example 194]	9.43
O=C(C1CCc2nn(Cc3ccnc(C(F)(F)F)c3F)c(=O)n21)N1C[C@@H](F)[C@@H](F)C1 (single isomer, unassigned) [Example 177]	8.16

The remaining lines, values ahead:

pIC50	Compound
8.23	O=C(C1CCc2nn(Cc3ccc(C(F)(F)F)nc3)c(=O)n21)N1C[C@@H](F)[C@@H](F)C1 (mixture of isomers) [Example 173, (5RS)-5-{[(3R,4S)-3,4-Difluoropyrrolidin-1-yl]carbonyl}-2-{[6-(trifluoromethyl)pyridin-3-yl]methyl}-2,5,6,7-tetrahydro-3H-pyrrolo[2,1-c][1,2,4]triazol-3-one]
8.43	O=C(C1CCc2nn(Cc3ccc(C(F)(F)F)nc3)c(=O)n21)N1CC[C@H](F)C1 (mixture of isomers) [Example 164, (5RS)-5-{[(3S)-3-Fluoropyrrolidin-1-yl]carbonyl}-2-{[6-(trifluoromethyl)pyridin-3-yl]methyl}-2,5,6,7-tetrahydro-3H-pyrrolo[2,1-c][1,2,4]triazol-3-one]
9.23	O=C([C@@H]1CCCc2nn(Cc3cncc(C(F)(F)F)c3)c(=O)n21)N1CC[C@H](F)C1 [Example 515, (5S)-5-{[(3S)-3-Fluoropyrrolidin-1-yl]carbonyl}-2-{[5-(trifluoromethyl)pyridin-3-yl]methyl}-5,6,7,8-tetrahydro[1,2,4]triazolo[4,3-a]pyridin-3(2H)-one]
6.22	O=C(C1CCc2nn(Cc3ccnc(C(F)(F)F)c3F)c(=O)n21)N1CC[C@H](F)C1 (single isomer, unassigned) [Example 179]
8.55	O=C(C1CC(C(F)(F)F)Cc2nn(Cc3ncc(Cl)cc3F)c(=O)n21)N1CC[C@H](F)C1 (mixture of isomers) [Example 263, (5RS,7RS)-2-[(5-Chloro-3-fluoropyridin-3-yl)methyl]-5-{[(3S)-3-fluoropyrrolidin-1-yl]carbonyl}-7-(trifluoromethyl)-5,6,7,8-tetrahydro[1,2,4]triazolo[4,3-a]pyridin-3(2H)-one]
8.58	O=C([C@@H]1CCCc2nn(Cc3cncc(Cl)c3)c(=O)n21)N1CCC(F)(F)C1 [Example 435, (5S)-2-[(5-Chloropyridin-3-yl)methyl]-5-[(3,3-difluoropyrrolidin-1-yl)carbonyl]-5,6,7,8-tetrahydro[1,2,4]triazolo[4,3-a]pyridin-3(2H)-one]
